Assay results published in patent US20130164386A1, “Targeting the Alpha3 Subnit of Na+-K+-ATPase for the Treatment of Cough with Sulfenamides” (THE JOHNS HOPKINS UNIVERSITY, priority 2010, published 2013).
Read-outs that look alike come from different tables or passages of the source.

Key:
[1] = tested on: citric acid evoked coughing; format: in vivo, guinea pig; details: anesthetized guinea pigs
[2] = tested on: citric acid evoked coughing; test: citric acid evoked coughing in conscious (unanesthetized) guinea pigs; format: in vivo, guinea pig; details: 1 mg/mL, nebulized, delivered as an aerosol to the airways, listed as acid-activated omeprazole
[3] = tested on: Na+-K+ ATPase activity of cough receptor terminations; test: intravital FM2-10 styryl dye labeling of cough receptor terminals in tracheal mucosa; set-up: species or system guinea pig; details: data not shown
Text: FIGS. 1A-1D show: (A) selective immunohistochemical labeling of cough receptor terminations in the guinea pig tracheal mucosa with antisera to the alpha3 subunit of Na+K+-ATPase; (B) the cough receptor terminals innerating the tracheal mucosa also are brilliantly and selectively labeled intravitally by the styryl dye FM2-10. This staining method depends upon active Na+-K+ ATPase.
Mazzone, S. B, et al., “Selective Expression of a Sodium Pump Isozyme by Cough Receptors and Evidence for Its Essential Role in Regulating Cough,” J. Neurosci., 2009, 29(43):13662-13671. Thus, the cough receptors uniquely express the alpha3 subunit of the sodium pump in their peripheral terminals, and these terminals display high basal sodium pump activity based on FM2-10 fluorescence.
Referring now to FIGS. 1A-1D, it is shown that: (A) selective immunohistochemical labeling of cough receptor terminations in the guinea pig tracheal mucosa with antisera to the alpha3 subunit of Na+K+-ATPase; (B) the cough receptor terminals innerating the tracheal mucosa also are brilliantly and selectively labeled intravitally by the styryl dye FM2-10. Styryl dyes are known to produce fluorescence intensity proportional to Na+-K+-ATPase activity. Consistent with this notion, FM2-10 labeling of the cough receptor terminations is prevented by the sodium pump inhibitor ouabain (not shown). […]

[4] = tested on: citric acid evoked coughing; details: alpha3-selective concentration; cited from earlier work
[5] = tested on: Na+-K+ ATPase activity of cough receptor terminations; details: Mazzone et al., J. Neurosci. 2009; cited from earlier work
cough receptors = details: in vitro; alpha3-selective concentration; cited from earlier work

SMILES	citric acid evoked coughing ([1]; topically applied to the tracheal mucosa, 0.1 mM, listed as acid activated omeprazole)	citric acid evoked coughing [2]	blood pressure ([1]; dose 30 μg/kg lv)	citric acid evoked coughing ([1]; dose 30 μg/kg lv)	heart rate ([1]; dose 30 μg/kg lv)	respiratory pattern at eupnea ([1]; dose 30 μg/kg lv)	FM2-10 labeling of the cough receptor terminations [3]	coughing evoked in vivo [4]	FM2-10 labeling of the cough receptors [5]	high frequency action potential patterning in cough receptors (cough receptors)
COc1ccc2[nH]c([S+]([O-])Cc3ncc(C)c(OC)c3C)nc2c1 (stereo not shown) [omeprazole]	nearly abolished	markedly inhibits								
C[C@@H]1O[C@@H](O[C@H]2C[C@@H](O)[C@]3(CO)[C@H]4[C@H](O)C[C@]5(C)[C@@H](C6=CC(=O)OC6)CC[C@]5(O)[C@@H]4CC[C@]3(O)C2)[C@H](O)[C@H](O)[C@H]1O [ouabain]			no effect	nearly abolished	no effect	no effect	prevented	reduced substantially	prevented	reduced substantially
